Like-named read-outs stand apart in the source and are kept apart here.
System: Algae (diatoms, green and blue algae)
Assay: Algicidal activity in 350 liter concrete pools under outdoor conditions
Conditions: for killing at 1 µg/mL: 1 mg/l water; for killing at 2 µg/mL: 2 mg/l water; for killing at 4 µg/mL: 4 mg/l water
Source text: A comparison of the algicidic activity of the preferred compound, 1-hexadecyl-2,3,5-trimethyl-pyrazolium methosulfate, with said standard is shown in Table 4.
Results given above are mean values from 2 replicates of
Test conditions: Severe with high infection pressure after artificial
algae inoculation in 350 liter concrete pools under outdoor conditions.
Stains included: Green algae: Chlorella, Zygnema, Hormidium + Scenedesmus
Blue algae: Phormidium species
Diatoms: Nitzschea pallea
Water temperature: Day: 21° C., night: 18°-20° C.

[1] = mean over weeks 1-6, read-out: % algicidal activity, --x (mean)
[2] = 168 h, 1 week after treatment, mean of 2 replicates, read-out: % algicidal activity
[3] = 336 h, 2 weeks after treatment, mean of 2 replicates, read-out: % algicidal activity
[4] = 504 h, 3 weeks after treatment, mean of 2 replicates, read-out: % algicidal activity
[5] = 672 h, 4 weeks after treatment, mean of 2 replicates, read-out: % algicidal activity
[6] = 840 h, 5 weeks after treatment, mean of 2 replicates, read-out: % algicidal activity
[7] = 1008 h, 6 weeks after treatment, mean of 2 replicates, read-out: % algicidal activity

CCCCCCCCCCCCCCCCn1c(C)cc(C)[n+]1C [Example 2, 1-hexadecyl-2,3,5-trimethyl-pyrazolium methosulfate]
killing at 1 µg/mL [1]: 96%
killing at 2 µg/mL [1]: 99%
killing at 4 µg/mL [1]: 100%
killing at 1 µg/mL [2]: 100%
killing at 2 µg/mL [2]: 100%
killing at 4 µg/mL [2]: 100%
killing at 1 µg/mL [3]: 100%
killing at 2 µg/mL [3]: 100%
killing at 4 µg/mL [3]: 100%
killing at 2 µg/mL [4]: 100%
killing at 4 µg/mL [4]: 100%
killing at 1 µg/mL [5]: 96%
killing at 2 µg/mL [5]: 100%
killing at 4 µg/mL [5]: 100%
killing at 1 µg/mL [6]: 93%
killing at 2 µg/mL [6]: 100%
killing at 4 µg/mL [6]: 100%
killing at 1 µg/mL [7]: 88%
killing at 2 µg/mL [7]: 98%
killing at 4 µg/mL [7]: 100%

From US4207326A, “Antimicrobial quaternary pyrazole derivatives” (Cilag-Chemie A.G., priority 1979, dated 1980)
